{"source": "paper PMC6901909", "about": "“Synergy Pattern of Short Cationic Antimicrobial Peptides Against Multidrug-Resistant Pseudomonas aeruginosa” (Frontiers in Microbiology, 2019)", "key": {"[1]": {"test_system": "MDR isolate of P. aeruginosa (PA 910)", "details": "checkerboard, MHb, for the Indopt versions 1/8 MHb, 2–5 × 10^5 CFU/ml, 37°C, 18 h, visual, determined once (n = 1); for FIC, combination with AMI: peptide + amikacin; for FIC, combination with CEF: peptide + cefepime; for FIC, combination with CET: peptide + ceftazidime; for FIC, combination with CIP: peptide + ciprofloxacin; for FIC, combination with ERY: peptide + erythromycin; for FIC, combination with GEN: peptide + gentamycin; for FIC, combination with IMI: peptide + imipenem; for FIC, combination with KAN: peptide + kanamycin; for FIC, combination with MER: peptide + meropenem; for FIC, combination with PIP: peptide + piperacillin; for FIC, combination with PMB: peptide + polymyxin B; for FIC, combination with TET: peptide + tetracycline; for FIC, combination with TOB: peptide + tobramycin", "method": "The checkerboard assay was used to determine the fractional inhibitory concentrations (FICs), following the protocol described in Koneman’s Color Atlas and Textbook of Diagnostic Microbiology ([Winn et al., 2006]). Briefly, combinations of peptides and antibiotics were prepared in 96-well plates (polypropylene, Corning) in a twofold dilution series. After the addition of a log-phase bacterial inoculum of 2–5 × 10^5 CFU/ml, plates were incubated at 37°C for 18 h. The FICs were determined by visual inspection and the effects of the combinations were determined using the FICs. The FIC was computed by adding two partial FIC values, FICA—the MIC of drug A, tested in combination with drug B divided by the MIC of drug A, tested alone and FICB—the MIC of drug B, tested in combination with drug A divided by the MIC of drug B, tested alone [FIC = FICA + FICB = (MICAB/MICA) + (MICBA/MICB), where MICA and MICB are the MICs of drugs A and B alone, respectively, and MICAB and MICBA are the MIC concentrations of the drugs in combination]. Here we use the European Committee for Antimicrobial Susceptibility Testing (EUCAST) definition, which is very similar to the definition provided by [Odds, 2003], except Odds define additive effects when FIC values are between 0.5 and 1 ([European Committee for Antimicrobial Susceptibility Testing [EUCAST] of the European Society of Clinical Microbiology and Infectious Diseases [ESCMID], 2000]; [Odds, 2003]). The combination of peptide (drug A) and antibiotics (drug B) was defined as synergistic if the FIC was ≤ 0.5, indifferent if the FIC was > 0.5 but ≤ 4.0 and antagonistic if the FIC was > 4.0."}, "MDR P. aeruginosa PA 910": {"test_system": "MDR P. aeruginosa PA 910", "test": "microbe, parasite or virus in culture", "type": "cell-based, Pseudomonas aeruginosa", "how_it_was_run": "(§1)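 Clinical and municipal waste-water MDR isolates were tested by broth microdilution in Mueller-Hinton broth with twofold serial dilutions at 2–5 10^5 CFU/ml. Plates were incubated 18 h at 37°C in polypropylene plates. MIC was read visually.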"}, "MDR P. aeruginosa PA253": {"test_system": "MDR P. aeruginosa PA253", "test": "microbe, parasite or virus in culture", "type": "cell-based, Pseudomonas aeruginosa", "how_it_was_run": "as §1"}, "P. aeruginosa PA01-wt": {"test_system": "P. aeruginosa PA01-wt", "test": "microbe, parasite or virus in culture", "type": "cell-based, Pseudomonas aeruginosa"}, "MDR P. aeruginosa PA 919": {"test_system": "MDR P. aeruginosa PA 919", "test": "microbe, parasite or virus in culture", "type": "cell-based, Pseudomonas aeruginosa", "how_it_was_run": "as §1"}, "[2]": {"details": "four classes defined from the MIC values, 1 strong to 4 weak"}, "[3]": {"details": "peptide alone, as listed in the FIC table"}, "[4]": {"details": "short AMPs, microdilution, Mueller-Hinton broth, 18 h at 37°C, read visually, triplicate (n = 3)"}}, "note": "Peptide text beside a SMILES is read from it."}
{"smiles": "CC[C@H](C)[C@H](NC(=O)[C@H](CCCCN)NC(=O)[C@H](CCC(=O)O)NC(=O)[C@H](CCCCN)NC(=O)[C@H](CO)NC(=O)[C@H](CCCCN)NC(=O)[C@H](CCCNC(=N)N)NC(=O)[C@H](Cc1ccccc1)NC(=O)[C@H](Cc1ccccc1)NC(=O)[C@H](CC(=O)O)NC(=O)CNC(=O)[C@H](CC(C)C)NC(=O)[C@@H](N)CC(C)C)C(=O)NCC(=O)N[C@@H](CCCCN)C(=O)N[C@@H](CCC(=O)O)C(=O)N[C@@H](Cc1ccccc1)C(=O)N[C@@H](CCCCN)C(=O)N[C@@H](CCCNC(=N)N)C(=O)N[C@H](C(=O)N[C@H](C(=O)N[C@@H](CCC(N)=O)C(=O)N[C@@H](CCCNC(=N)N)C(=O)N[C@H](C(=O)N[C@@H](CCCCN)C(=O)N[C@@H](CC(=O)O)C(=O)N[C@@H](Cc1ccccc1)C(=O)N[C@@H](CC(C)C)C(=O)N[C@@H](CCCNC(=N)N)C(=O)N[C@@H](CC(N)=O)C(=O)N[C@@H](CC(C)C)C(=O)N[C@H](C(=O)N1CCC[C@H]1C(=O)N[C@@H](CCCNC(=N)N)C(=O)N[C@H](C(=O)N[C@@H](CCC(=O)O)C(=O)N[C@@H](CO)C(=O)O)[C@@H](C)O)C(C)C)[C@@H](C)CC)C(C)C)[C@@H](C)CC", "note": "[LL37]", "values": [{"measurement": "FIC, combination with AMI", "setting": "[1]", "value": 2}, {"measurement": "FIC, combination with CEF", "setting": "[1]", "value": 2}, {"measurement": "FIC, combination with CET", "setting": "[1]", "value": 0.75}, {"measurement": "FIC, combination with CIP", "setting": "[1]", "value": 0.51}, {"measurement": "FIC, combination with ERY", "setting": "[1]", "value": 0.51}, {"measurement": "FIC, combination with GEN", "setting": "[1]", "value": 2}, {"measurement": "FIC, combination with IMI", "setting": "[1]", "value": 1}, {"measurement": "FIC, combination with KAN", "setting": "[1]", "value": 1}, {"measurement": "FIC, combination with MER", "setting": "[1]", "value": 0.51}, {"measurement": "FIC, combination with PIP", "setting": "[1]", "value": 2}, {"measurement": "FIC, combination with PMB", "setting": "[1]", "value": 0.63}, {"measurement": "FIC, combination with TET", "setting": "[1]", "value": 0.5}, {"measurement": "FIC, combination with TOB", "setting": "[1]", "value": 2}, {"measurement": "activity class by MIC (number in brackets), PA910", "setting": "MDR P. aeruginosa PA 910; [2]", "value": "4 (the least active class includes peptides with MIC values larger than 32 μM)"}, {"measurement": "MIC against PA910 in μM (peptides, Table 4)", "setting": "MDR P. aeruginosa PA 910; [3]", "value": 64, "unit": "µM"}, {"measurement": "MIC against MDR isolates of PA, PA910", "setting": "MDR P. aeruginosa PA 910; [4]", "value": 64, "unit": "µM"}, {"measurement": "activity class by MIC (number in brackets), PA253", "setting": "MDR P. aeruginosa PA253; [2]", "value": "4 (the least active class includes peptides with MIC values larger than 32 μM)"}, {"measurement": "MIC against MDR isolates of PA, PA253", "setting": "MDR P. aeruginosa PA253; [4]", "value": 64, "unit": "µM"}, {"measurement": "activity class by MIC (number in brackets), PA01 wt", "setting": "P. aeruginosa PA01-wt; [2]", "value": "3 (class 3 includes peptides with MIC values between 16 and 32 μM)"}, {"measurement": "MIC against PA01 wt", "setting": "P. aeruginosa PA01-wt; [4]", "value": 16, "unit": "µM"}, {"measurement": "activity class by MIC (number in brackets), PA919", "setting": "MDR P. aeruginosa PA 919; [2]", "value": "3 (class 3 includes peptides with MIC values between 16 and 32 μM)"}, {"measurement": "MIC against MDR isolates of PA, PA919", "setting": "MDR P. aeruginosa PA 919; [4]", "value": 16, "unit": "µM"}]}
{"smiles": "CC[C@H](C)[C@H](NC(=O)[C@H](CCCNC(=N)N)NC(=O)[C@H](CCCNC(=N)N)NC(=O)[C@H](CC(C)C)NC(=O)[C@@H](N)CCCNC(=N)N)C(=O)N[C@H](C(=O)N[C@H](C(=O)N[C@H](C(=O)N[C@@H](CCCNC(=N)N)C(=O)N[C@H](C(=O)N[C@@H](C)C(=O)N[C@@H](CCCNC(=N)N)C(N)=O)C(C)C)[C@@H](C)CC)C(C)C)C(C)C", "note": "[Peptide R3] (H-RLRRIVVIRVAR-NH2)", "values": [{"measurement": "MIC against PA910 in μM (peptides, Table 4)", "setting": "MDR P. aeruginosa PA 910; MDR PA 910, 18 h", "value": 32, "unit": "µM"}, {"measurement": "MIC against MDR isolates of PA, PA253", "setting": "MDR P. aeruginosa PA253; MDR PA253, 18 h", "value": 16, "unit": "µM"}, {"measurement": "MIC against PA01 wt", "setting": "P. aeruginosa PA01-wt; -wt, 18 h", "value": 16, "unit": "µM"}, {"measurement": "MIC against MDR isolates of PA, PA919", "setting": "MDR P. aeruginosa PA 919; MDR PA 919, 18 h", "value": 16, "unit": "µM"}]}
{"smiles": "CC[C@H](C)[C@H](NC(=O)[C@H](CCCNC(=N)N)NC(=O)[C@H](C)NC(=O)[C@H](CC(C)C)NC(=O)[C@@H](N)CCCNC(=N)N)C(=O)N[C@H](C(=O)N[C@H](C(=O)N[C@H](C(=O)N[C@@H](CCCNC(=N)N)C(=O)N[C@@H](Cc1c[nH]c2ccccc12)C(=O)N[C@@H](C)C(=O)N[C@@H](CCCNC(=N)N)C(N)=O)[C@@H](C)CC)C(C)C)C(C)C", "note": "[Peptide W10] (H-RLARIVVIRWAR-NH2)", "values": [{"measurement": "MIC against MDR isolates of PA, PA910", "setting": "MDR P. aeruginosa PA 910; MDR PA 910, 18 h", "value": 16, "unit": "µM"}, {"measurement": "MIC against MDR isolates of PA, PA253", "setting": "MDR P. aeruginosa PA253; MDR PA253, 18 h", "value": 16, "unit": "µM"}, {"measurement": "MIC against PA01 wt", "setting": "P. aeruginosa PA01-wt; -wt, 18 h", "value": 16, "unit": "µM"}, {"measurement": "MIC against MDR isolates of PA, PA919", "setting": "MDR P. aeruginosa PA 919; MDR PA 919, 18 h", "value": 16, "unit": "µM"}]}
{"smiles": "CC[C@H](C)[C@H](NC(=O)[C@H](CCCNC(=N)N)NC(=O)[C@H](Cc1c[nH]c2ccccc12)NC(=O)[C@H](CC(C)C)NC(=O)[C@@H](N)CCCNC(=N)N)C(=O)N[C@H](C(=O)N[C@H](C(=O)N[C@H](C(=O)N[C@@H](CCCNC(=N)N)C(=O)N[C@H](C(=O)N[C@@H](CCCCN)C(=O)N[C@@H](CCCNC(=N)N)C(N)=O)C(C)C)[C@@H](C)CC)C(C)C)C(C)C", "note": "[Sub 7] (H-RLWRIVVIRVKR-NH2)", "values": [{"measurement": "FIC, combination with AMI", "setting": "[1]", "value": 0.53}, {"measurement": "FIC, combination with CEF", "setting": "[1]", "value": 0.56}, {"measurement": "FIC, combination with CET", "setting": "[1]", "value": 0.56}, {"measurement": "FIC, combination with CIP", "setting": "[1]", "value": 0.75}, {"measurement": "FIC, combination with ERY", "setting": "[1]", "value": 0.5}, {"measurement": "FIC, combination with GEN", "setting": "[1]", "value": 0.75}, {"measurement": "FIC, combination with IMI", "setting": "[1]", "value": 2}, {"measurement": "FIC, combination with KAN", "setting": "[1]", "value": 0.63}, {"measurement": "FIC, combination with MER", "setting": "[1]", "value": 0.51}, {"measurement": "FIC, combination with PIP", "setting": "[1]", "value": 0.53}, {"measurement": "FIC, combination with PMB", "setting": "[1]", "value": 1}, {"measurement": "FIC, combination with TET", "setting": "[1]", "value": 0.5}, {"measurement": "FIC, combination with TOB", "setting": "[1]", "value": 2}, {"measurement": "MIC against PA910 in μM (peptides, Table 4)", "setting": "MDR P. aeruginosa PA 910; [3]", "value": 32, "unit": "µM"}, {"measurement": "MIC against MDR isolates of PA, PA253", "setting": "MDR P. aeruginosa PA253; MDR PA253, 18 h", "value": 16, "unit": "µM"}, {"measurement": "MIC against PA01 wt", "setting": "P. aeruginosa PA01-wt; -wt, 18 h", "value": 16, "unit": "µM"}, {"measurement": "MIC against MDR isolates of PA, PA919", "setting": "MDR P. aeruginosa PA 919; MDR PA 919, 18 h", "value": 32, "unit": "µM"}]}
